Measurements from patent publication US4328359A, “15-Deoxy-16-substituted-19-chloro-20-nor-prostane derivatives of the E and F series” (American Cyanamid Company, priority 1981, dated 1982).

How the values were obtained:
Assay type in all cases: in vivo
[1] = system: bronchospasms elicited by intravenous injections of serotonin; experiment: Konzett procedure: bronchodilator activity in Guinea-Pigs, serotonin-induced bronchospasm; conditions: Cavia porcellus, spasmogen serotonin, three logarithmic cumulative intravenous doses
Method: (§1) The bronchodilator activity for representative compounds of this invention was determined in Guinea-Pigs against bronchospasms elicited by intravenous injections of serotonin, histamine, and acetylcholine, by the Konzett procedure, the details of which are those discussed by J. Lulling, P. Lievens, F. El Sayed and J. Prignot, Arzeimittel-Forschung 18, 995 (1968).
(§2) In the table which follows, bronchodilator activity for representative compounds of the invention against spasmogenic agents serotonin, histamine, and acetylcholine is expressed as an ED50 determined from the results obtained with three logarithmic cumulative intravenous doses.

[2] = system: bronchospasms elicited by intravenous injections of histamine; experiment: Konzett procedure: bronchodilator activity in Guinea-Pigs, histamine-induced bronchospasm; conditions: Cavia porcellus, spasmogen histamine, three logarithmic cumulative intravenous doses
Method: as §1, §2

[3] = system: bronchospasms elicited by intravenous injections of acetylcholine; experiment: Konzett procedure: bronchodilator activity in Guinea-Pigs, acetylcholine-induced bronchospasm; conditions: Cavia porcellus, spasmogen acetylcholine, three logarithmic cumulative intravenous doses
Method: as §1, §2

## O=C(O)CCC/C=C\C[C@H]1C(=O)C[C@@H](O)[C@@H]1/C=C/CC(O)CCCCl (relative stereo) [dl 11α,16-dehydroxy-9-oxo-19-chloro-20-nor-5-cis,13-trans prostadienoic acid]
[1]
  ED50: 4.65 µg/kg
[2]
  ED50: 4.4 µg/kg
[3]
  ED50: 6.8 µg/kg
